Measured values as given in ChEMBL document CHEMBL1201862, “PubChem BioAssay data set” (2004).
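How tested: cells in 96-well plates exposed to compound for 48 hours at five concentrations. At the GI50, growth is halved.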 Active and inactive are the calls of the source. No stated cut-off is given here; in the data, active = GI50 up to about 1.1 µM and inactive = higher.

What was measured:
Experiment in all cases: NCI-60 cell line screen, 48 h
[1] = system: OVCAR-3
[2] = system: RPMI-8226
[3] = system: SF-268
[4] = system: IGROV-1
[5] = system: OVCAR-8
[6] = system: HT-29
[7] = system: UO-31
[8] = system: K562
[9] = system: SK-MEL-28
[10] = system: ACHN
[11] = system: HL-60
[12] = system: CCRF-CEM
[13] = system: RXF 393
[14] = system: A549
[15] = system: HOP-92
[16] = system: SK-MEL-5
[17] = system: SR

Measured: GI50

OCC(O)C(O)C(O)c1nn(-c2ccc(F)cc2)c2nc3cc(Cl)c(Cl)cc3nc12 (stereo unspecified)
inactive: [1] 21.8 µM | [2] 36.4 µM | [3] 16.9 µM | [4] 21.9 µM | [5] 11 µM | [6] 56 µM | [7] 33.5 µM | [8] 17.6 µM | [9] 16.8 µM | [10] > 10 µM | [11] > 100 µM | [12] 14.9 µM | [13] 15.6 µM | [14] 13.3 µM

O=C(/C=C/c1c(O)ccc2ccccc12)c1ccccc1Cl
inactive: [1] 26.1 µM | [2] 27.7 µM | [3] 29.3 µM | [4] 55.5 µM | [5] 32 µM | [6] 46.5 µM | [7] 49.1 µM | [8] 20.2 µM | [9] 23 µM | [10] 34.3 µM | [11] 11.1 µM | [12] 17.3 µM | [15] 23.2 µM | [16] 18.2 µM | [13] 26.2 µM | [14] 32.5 µM

CN(C)c1ccc(/C=C(/C(=O)O)c2csc(-c3nc(/C(=C\c4ccc(N(C)C)cc4)C(=O)O)cs3)n2)cc1
inactive: [1] > 100 µM | [2] 46.1 µM | [3] > 100 µM | [4] > 100 µM | [5] > 100 µM | [6] 44.7 µM | [7] 60.3 µM | [8] 41.7 µM | [9] > 100 µM | [10] > 100 µM | [11] 43 µM | [12] 16.7 µM | [15] > 100 µM | [16] 86.5 µM | [13] > 100 µM | [14] > 100 µM

N#C/C(=C\c1cc(OCc2ccccc2)c(OCc2ccccc2)cn1)C(N)=O
inactive: [1] > 100 µM | [2] 36.6 µM | [3] > 100 µM | [4] > 100 µM | [5] > 100 µM | [6] > 100 µM | [7] > 100 µM | [8] 26.2 µM | [9] > 100 µM | [10] > 100 µM | [11] 16 µM | [12] 32.1 µM | [15] 85.7 µM | [16] > 100 µM | [13] > 100 µM | [14] > 100 µM

O=C1C2CC=CCC2C(=O)C12CCc1ccccc12 (stereo unspecified)
inactive: [1] > 100 µM | [3] > 100 µM | [4] > 100 µM | [5] > 100 µM | [6] > 100 µM | [7] > 100 µM | [8] > 100 µM | [9] > 100 µM | [10] > 100 µM | [11] 74.6 µM | [12] > 100 µM | [15] > 100 µM | [13] > 100 µM | [14] > 100 µM

OCC1OC2c3ccccc3COC2C1OCc1ccccc1 (stereo unspecified)
inactive: [1] > 100 µM | [2] > 100 µM | [4] > 100 µM | [5] > 100 µM | [6] > 100 µM | [17] > 100 µM | [7] > 100 µM | [8] 96.4 µM | [9] > 100 µM | [10] > 100 µM | [16] 38.1 µM | [13] > 100 µM | [14] > 100 µM

COc1cc(CNc2cnc3ccc(N)cc3n2)cc(OC)c1OC
inactive: [1] > 100 µM | [2] 91.4 µM | [3] > 100 µM | [4] > 100 µM | [5] > 100 µM | [6] > 100 µM | [7] > 100 µM | [8] 36.3 µM | [9] > 100 µM | [10] > 100 µM | [11] 36.3 µM | [12] > 100 µM | [15] > 100 µM | [16] 71.3 µM | [13] > 100 µM | [14] > 100 µM

O=C(O)CCNS(=O)(=O)c1ccc(NC(=O)c2ccccc2)cc1
inactive: [1] > 100 µM | [2] > 100 µM | [3] > 100 µM | [4] > 100 µM | [5] > 100 µM | [6] > 100 µM | [7] > 100 µM | [8] > 100 µM | [9] > 100 µM | [10] > 100 µM | [11] > 100 µM | [12] > 100 µM | [15] > 100 µM | [16] > 100 µM | [13] > 100 µM | [14] > 100 µM

NC1(CCCCCCCCCCC(=O)O)CNCCNCCNCCNC1
inactive: [1] 59 µM | [2] 37.4 µM | [3] > 100 µM | [4] 26.9 µM | [5] 67.3 µM | [6] 40.8 µM | [17] 22.7 µM | [7] > 100 µM | [8] 33.8 µM | [9] > 100 µM | [10] 55.3 µM | [11] 15.9 µM | [12] 22.6 µM | [16] 38.9 µM | [13] 27.7 µM | [14] 57.5 µM

O=C(Cc1nc2ccccc2s1)NC12CC3CC(CC(C3)C1)C2
inactive: [3] > 100 µM | [5] > 100 µM | [6] > 100 µM | [17] > 100 µM | [7] > 100 µM | [8] > 100 µM | [9] > 100 µM | [10] > 100 µM | [11] > 100 µM | [12] > 100 µM | [15] > 100 µM | [14] > 100 µM

Cc1ccc(/N=C2\N=C(N3CC(C)OC(C)C3)c3ccccc32)cc1 (stereo unspecified)
inactive: [1] 24.3 µM | [2] 27.2 µM | [3] 25.9 µM | [4] 27.5 µM | [5] 33.4 µM | [6] 23.7 µM | [7] 21.3 µM | [8] 34 µM | [9] 28.4 µM | [10] 28.6 µM | [12] 23.3 µM | [15] 1.41 µM | [16] 23.6 µM | [13] 12.6 µM | [14] 39.9 µM

COC(=O)/C(=N\NC(N)=S)C(C#N)c1ccccc1 (stereo unspecified)
inactive: [1] > 100 µM | [2] > 100 µM | [3] > 100 µM | [4] > 100 µM | [5] > 100 µM | [6] > 100 µM | [7] > 100 µM | [8] > 100 µM | [9] > 100 µM | [10] > 100 µM | [11] > 100 µM | [12] > 100 µM | [15] > 100 µM | [16] > 100 µM | [13] > 100 µM | [14] > 100 µM

CCCCCCCCCCCCSC(=S)c1c(C)[nH]n(-c2ccccc2)c1=O
inactive: [1] 13.3 µM | [2] 11.2 µM | [3] 12.6 µM | [4] 14.6 µM | [5] 14 µM | [6] 14.3 µM | [7] 13.6 µM | [8] 6.61 µM | [9] 7.36 µM | [10] 16.9 µM | [11] 8.59 µM | [12] 2.9 µM | [15] 25.8 µM | [16] 5.58 µM | [13] 10.3 µM | [14] 11.8 µM
